Experimental data from article PMC8085013, “Mixture interactions at mammalian olfactory receptors are dependent on the cellular environment” (Scientific Reports, 2021).
“Also recorded” adds a separate entry of the source.

Assays:
Type in all cases: cell-based
mouse Olfr73 [1] = target: T1, mouse Olfr73 (Mus musculus, UniProt Q920P2); experiment: GCaMP3 calcium imaging of mouse OSNs ectopically expressing Olfr73 (rAAV2/5), 5-s odorant pulse; details: for Agonism/antagonism, OSN Ca2+ Mouse: strong agonist 100 µM, putative antagonist 1 mM, single or as pair; for Effect on the response to eugenol in a binary mix: eugenol 100 µM or 10 µM plus putative antagonist
T1 sequence (Q920P2 1-313): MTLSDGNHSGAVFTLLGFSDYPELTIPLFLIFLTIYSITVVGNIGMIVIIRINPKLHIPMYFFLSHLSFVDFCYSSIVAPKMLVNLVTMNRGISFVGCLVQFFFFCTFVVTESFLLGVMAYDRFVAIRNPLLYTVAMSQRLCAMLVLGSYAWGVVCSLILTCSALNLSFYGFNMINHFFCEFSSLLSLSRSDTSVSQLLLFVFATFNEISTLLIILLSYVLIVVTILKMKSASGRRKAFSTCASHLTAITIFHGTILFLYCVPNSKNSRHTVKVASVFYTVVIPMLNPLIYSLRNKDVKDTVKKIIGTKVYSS

mouse Olfr73 [2] = target: T1, mouse Olfr73; experiment: Calcium imaging of HEK293 cells expressing Olfr73 with Gs/olf, short 5-s odorant pulse; details: for Effect on the response to eugenol or vanillin in a binary mix: agonist 100 µM, test ligand 1 mM; for Agonism/antagonism, HEK293 short odor Ca2+ Gs/olf: strong agonist 100 µM, putative antagonist 1 mM, single or as pair
mouse Olfr73 [3] = target: T1, mouse Olfr73; experiment: Calcium imaging of HEK293 cells expressing Olfr73 with Gα15, short 5-s odorant pulse; details: for Response to ligand applied alone: HEK293, Gα15, 5-s pulse; for Effect on the response to eugenol in a binary mix: HEK293, Gα15, eugenol 100 µM; for Agonism/antagonism, HEK293 short odor Ca2+ G15: 5-s pulse, strong agonist 100 µM, putative antagonist 1 mM, single or as pair
mouse Olfr73 [4] = target: T1, mouse Olfr73; experiment: cell-based; details: for Response to ligand applied alone: HEK293, Gαq11/ß1/γ13, 5-s pulse; for Agonism/antagonism, HEK293 short odor Ca2+ Gq11: 5-s pulse, strong agonist 100 µM, putative antagonist 1 mM, single or as pair
mouse Olfr73 [5] = target: T1, mouse Olfr73; experiment: GCaMP3 calcium imaging of rat OSNs ectopically expressing Olfr73 (rAAV2/5), 5-s odorant pulse
mouse Olfr73 [6] = target: T1, mouse Olfr73; experiment: Cre-SEAP cAMP reporter assay, HEK293 cells co-expressing untagged Olfr73 and Gs/olf, prolonged odorant
Procedure: cAMP production was measured as previously described. HEK293T cells were co-transfected with a guanine nucleotide exchange factor Ric-8b (50 ng; a gift from Dr. Malnic, Universidade de São Paulo, Brazil), Gαolf (50 ng), RTP1s (100 ng) and untagged Olfr73 (1.5 μg). Cells were also transfected with 1.5 μg of a pCRE-SEAP, where the expression of the secreted alkaline phosphatase (SEAP) is under regulation of the cAMP responsive element. A plasmid pTAL-SEAP missing the Cre element was used as a negative control. Cells were also transfected with 50 ng of a pcDNA5/TO/LacZ (Invitrogen) for DNA concentration normalization. At 24 h post-transfection, the cells were re-seeded for SEAP analysis and odorants were added at the indicated dilutions at 48 h post-transfection. […] The supernatants were incubated for 30 min at 65 °C and then frozen until analysis. The cell pellets were washed with PBS and then lysed with reporter lysis buffer for β-galactosidase measurement following the manufacturer’s instructions (Promega). SEAP activity was measured by mixing 100 μl of supernatant with an equal amount of BluePhos substrate (KPL). Samples were monitored for color development at 630 nm in a microwell plate reader. SEAP activity was calculated by subtracting the responses of cells transfected in parallel with pTAL-SEAP and normalizing to β-gal activity. Average SEAP activity was determined after subtracting the response of cells not expressing an OR and is reported in arbitrary units ± standard deviation.

mouse Olfr73 [7] = target: T1, mouse Olfr73; experiment: cAMP-dependent Ca2+ influx (CNGCmut, GCaMP3) in HEK293 cells with untagged Olfr73 and Gs/olf, 10-min odorant; details: for Response to ligand applied alone, prolonged: 10-min application; for Response to ligand applied alone, prolonged / Agonism/antagonism, HEK293 long odor Ca2+ Gs/olf: eugenol 100 µM, MIEG 1 mM; for Agonism/antagonism, HEK293 long odor Ca2+ Gs/olf: prolonged 10-min odorant application
mouse Olfr73 [8] = target: T1, mouse Olfr73; experiment: GCaMP3 calcium imaging of HEK293T cells co-transfected with pTR-Olfr73-furin2A-GCaMP3 (untagged Olfr73) and Gα15, 5-s pulse; details: for Response to ligand applied alone: HEK293T, untagged Olfr73, Gα15, 5-s pulse
Olfr599 = Olfr599 (Mus musculus, UniProt Q8VG01); experiment: GCaMP3 calcium imaging of mouse OSNs ectopically expressing Olfr599 (rAAV2/5); details: each at 100 µM, 5-s pulse
Olfr599, sequence (Q8VG01 entry or part of it): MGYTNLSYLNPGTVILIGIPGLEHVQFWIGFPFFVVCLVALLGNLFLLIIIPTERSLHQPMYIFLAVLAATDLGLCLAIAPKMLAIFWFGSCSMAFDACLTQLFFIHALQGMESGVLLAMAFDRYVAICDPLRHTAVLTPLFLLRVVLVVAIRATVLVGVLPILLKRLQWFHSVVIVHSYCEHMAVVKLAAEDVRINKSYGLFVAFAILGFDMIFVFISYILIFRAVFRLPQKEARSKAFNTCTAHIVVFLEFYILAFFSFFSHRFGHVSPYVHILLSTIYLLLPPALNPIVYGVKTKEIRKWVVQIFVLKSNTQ
Procedure: Animals 4–6 weeks of age were used for experiments 7–21 days post-inoculation with rAAV2/5 encoding OR-furin2A-GCaMP3. Calcium imaging was performed as detailed previously. Tissue was prepared and mounted with the apical surface facing up. The chamber was transferred to the stage of an upright microscope (Zeiss Axioskop-2F) equipped with a 40×/0.75NA long distance water-immersion objective lens. Experimental solutions were applied for a duration of 5 s directly to the field of view through a 100 µm diameter needle made of fused silica and connected to a 9-channel Teflon manifold. Solution application was controlled by electronic valves (VC-6, Warner Instruments). The calcium response is presented as an increase of GCaMP3 fluorescence originating from the knob and underlying dendrite. The tissue was illuminated using a standard eGFP filter cube BP490 nm/ 535 nm (Omega Optical, USA) and the emitted light was collected at 530 nm (BP 530/20 nm, Omega Optical, USA) by a 12-bit cooled CCD camera (ORCA R2, Hamamatsu, Japan). […] Before processing, fluorescence intensity was corrected for the background. Each knob was assigned a region of interest (ROI) and changes in fluorescence intensity within each ROI were analyzed and expressed as the peak fractional change in fluorescent light intensity (F-Fo)/Fo where Fo is the baseline fluorescence before application of experimental solutions.

[9] = HEK293, vanillin 100 µM, MIEG 1 mM

Structure (SMILES): CCCCCOC(C)=O [Amyl acetate, amyl acetate]
- Response to ligand applied alone (mouse Olfr73 [1]; mouse Olfr73-OSNs, 5-s pulse): variable responses

Structure (SMILES): C=C(C)C1CC=C(C)C(=O)C1 (stereo not drawn) [Carvone]
- Response to ligand applied alone (mouse Olfr73 [2]; HEK293, Gs/olf, 5-s pulse): did not activate any response
- Effect on the response to eugenol or vanillin in a binary mix (mouse Olfr73 [2]; HEK293, Gs/olf): no inhibiting effect
- Response to ligand applied alone (mouse Olfr73 [3]): non-agonist
- Effect on the response to eugenol in a binary mix (mouse Olfr73 [3]): incapable
- Response to ligand applied alone (mouse Olfr73 [4]): non-agonist
- Effect on the response to eugenol in a binary mix (mouse Olfr73 [4]; HEK293, eugenol 100 µM, test ligand 1 mM, also with 30-s pre-incubation): no antagonism; also recorded: failed to antagonize

Structure (SMILES): C=CCc1ccc(O)c(OC)c1 [Eugenol, eugenol]
- EC50 (mouse Olfr73 [1]): 4.8 ± 1.1 µM
- Response to ligand applied alone (mouse Olfr73 [1]; mouse Olfr73-OSNs, 5-s pulse): strongly activated; also recorded: consistently evoked a response in all cells
- EC50 (mouse Olfr73 [5]): 41 ± 12 µM
- Sensitivity of rat versus mouse Olfr73-OSNs (mouse Olfr73 [5]; from EC50 values): nearly tenfold less sensitive
- EC50 (mouse Olfr73 [6]; HEK293 long odor, Cre/SEAP, Gs/olf, untagged Olfr73): 205 ± 27 µM
- Response to ligand applied alone, prolonged (mouse Olfr73 [7]): sustained cAMP-dependent calcium influx
- Agonism/antagonism, HEK293 long odor Ca2+ Gs/olf (mouse Olfr73 [7]): Agonist
- Agonism/antagonism, HEK293 short odor Ca2+ Gs/olf (mouse Olfr73 [2]; 5-s pulse): Agonist
- Agonism/antagonism, HEK293 short odor Ca2+ G15 (mouse Olfr73 [3]): Agonist
- Response to ligand applied alone (mouse Olfr73 [4]): consistently activated calcium release
- EC50 (mouse Olfr73 [4]; HEK293 short odor Ca2+, Gq11, response normalized to 5 mM eugenol): 184 ± 62 µM
- Response to ligand applied alone (mouse Olfr73 [8]): robustly activated
- Response to ligand applied alone (mouse Olfr73 [8]; listed as eugenol): robust elevation of intracellular calcium; also recorded: robust calcium signal

Structure (SMILES): C/C=C/c1ccc2c(c1)OCO2 [Isosafrole]
- Agonism/antagonism, OSN Ca2+ Mouse (mouse Olfr73 [1]; 5-s pulse): Agonist
- Response relative to the response to eugenol (mouse Olfr73 [1]; ligand 1 mM, 5-s pulse, Olfr73-OSNs): 25%
- Agonism/antagonism, HEK293 short odor Ca2+ Gs/olf (mouse Olfr73 [2]; 5-s pulse): Antagonist
- Agonism/antagonism, HEK293 short odor Ca2+ G15 (mouse Olfr73 [3]): Antagonist
- Agonism/antagonism, HEK293 short odor Ca2+ Gq11 (mouse Olfr73 [4]): Antagonist

Structure (SMILES): C/C=C/c1ccc(OC)c(OC)c1 [Methylisoeugenol, methylisoeugenol]
- Response to ligand applied alone (mouse Olfr73 [1]; mouse Olfr73-OSNs, 5-s pulse): evoked a measurable response
- Response to ligand applied alone (mouse Olfr73 [1]; mouse Olfr73-OSNs, 5-s pulse, listed as MIEG): partial agonist
- Response to ligand applied alone (mouse Olfr73 [1]; mouse Olfr73-OSNs, 5-s pulse, listed as methylisoeugenol): also elicited a response
- EC50 (mouse Olfr73 [1]; mouse Olfr73-OSNs, Ca2+ (GCaMP3), 5-s odorant pulse, read-out: EC50): 430 ± 130 µM
- Effect on the response to eugenol in a binary mix (mouse Olfr73 [1]; mouse Olfr73-OSNs, listed as MIEG): did not reduce the response; also recorded: not significantly changed
- Agonism/antagonism, OSN Ca2+ Rat (mouse Olfr73 [5]; 5-s pulse, strong agonist 100 µM, putative antagonist 1 mM): Agonist
- Agonism/antagonism, HEK293 long odor Cre/SEAP Gs/olf (mouse Olfr73 [6]; prolonged 30-min odorant application): Agonist
- Response to ligand applied alone, Cre-SEAP (mouse Olfr73 [6]; prolonged application, 0 µM eugenol): generated cAMP
- Interaction with eugenol in a binary mix, Cre-SEAP (mouse Olfr73 [6]; several concentrations of eugenol and MIEG, prolonged incubation): no antagonistic interaction
- Response to ligand applied alone, prolonged (mouse Olfr73 [7]): more slowly developing cAMP-dependent calcium influx; also recorded: significantly smaller than eugenol
- Response to mixture with eugenol versus eugenol alone, prolonged (mouse Olfr73 [7]; 10 min, eugenol 100 µM and MIEG 1 mM): no significant difference
- Agonism/antagonism, HEK293 long odor Ca2+ Gs/olf (mouse Olfr73 [7]): Agonist
- Agonism/antagonism, HEK293 short odor Ca2+ Gs/olf (mouse Olfr73 [2]; 5-s pulse): Antagonist
- Effect on the response to eugenol or vanillin in a binary mix (mouse Olfr73 [2]; HEK293, Gs/olf): antagonized
- Agonism/antagonism, HEK293 short odor Ca2+ G15 (mouse Olfr73 [3]): Antagonist
- Effect on the response to vanillin, 30-sec pre-incubation (mouse Olfr73 [3]; HEK293, Gα15, vanillin 100 µM, MIEG 1 mM): complete inhibition
- Agonism/antagonism, HEK293 short odor Ca2+ Gq11 (mouse Olfr73 [4]): Antagonist
- Effect on the response to vanillin, 30-s pre-incubation (mouse Olfr73 [4]; [9]): near complete inhibition; also recorded: almost completely blocked
- Effect on the response to vanillin, co-application (mouse Olfr73 [4]; [9]): only partially inhibited
- Response to ligand applied alone (mouse Olfr73 [8]; listed as MIEG): did not evoke any response; also recorded: did not elicit any response
- Effect on the response to eugenol in a binary mix (mouse Olfr73 [8]; eugenol 100 µM, MIEG 1 mM, 5-s pulse): reduced the response; also recorded: significantly diminished

Structure (SMILES): COc1cc(C=O)ccc1O [Vanillin, vanillin]
- Agonism/antagonism, HEK293 short odor Ca2+ Gs/olf (mouse Olfr73 [2]; 5-s pulse): Agonist

Structure (SMILES): CC(=O)c1ccccc1 [acetophenone]
- Response to ligand applied alone (mouse Olfr73 [1]; mouse Olfr73-OSNs, 5-s pulse): variable responses

Structure (SMILES): C=CCc1cc(OC)c(O)c(-c2cc(CC=C)cc(OC)c2O)c1 [di-Eugenol]
- Agonism/antagonism, OSN Ca2+ Mouse (mouse Olfr73 [1]; 5-s pulse): Inactive
- Response to ligand applied alone (mouse Olfr73 [1]; mouse Olfr73-OSNs, 5-s pulse): failed to activate any response
- Response to ligand applied alone (mouse Olfr73 [1]; mouse Olfr73-OSNs, 5-s pulse, listed as di-EG): did not elicit any response
- Agonism/antagonism, HEK293 short odor Ca2+ Gs/olf (mouse Olfr73 [2]; 5-s pulse): Antagonist
- Agonism/antagonism, HEK293 short odor Ca2+ G15 (mouse Olfr73 [3]): Antagonist
- Agonism/antagonism, HEK293 short odor Ca2+ Gq11 (mouse Olfr73 [4]): Antagonist

Structure (SMILES): CCC1c2cc(OC)c(O)cc2C(c2ccc(O)c(OC)c2)C1C (stereo not drawn) [di-Isoeugenol]
- Agonism/antagonism, OSN Ca2+ Mouse (mouse Olfr73 [1]; 5-s pulse): Inactive
- Response to ligand applied alone (mouse Olfr73 [1]; mouse Olfr73-OSNs, 5-s pulse, listed as di-IEG): did not elicit any response; also recorded: failed to activate any response
- Effect on the response to eugenol in a binary mix (mouse Olfr73 [1]; mouse Olfr73-OSNs, listed as di-IEG): not able to antagonize; also recorded: additive increase
- Agonism/antagonism, HEK293 short odor Ca2+ Gs/olf (mouse Olfr73 [2]; 5-s pulse): Antagonist
- Agonism/antagonism, HEK293 short odor Ca2+ G15 (mouse Olfr73 [3]): Antagonist
- Response to ligand applied alone (mouse Olfr73 [3]): is not an agonist
- Effect on the response to eugenol in a binary mix (mouse Olfr73 [3]): antagonizes eugenol
- Agonism/antagonism, HEK293 short odor Ca2+ Gq11 (mouse Olfr73 [4]): Antagonist

Structure (SMILES): CCCCCCCC=O [octanal]
- Response to ligand applied alone (Olfr599): evoked reliable neuronal responses
